Source: patent US7045624B2, “Compounds and their uses” (Conopco, Inc., priority 2002, dated 2006)

Assays:
[1] = Cooling effect of synthesised compounds (test not described); details: ability to elicit a cooling sensation; no test details given
[2] = system: Neurons from trigeminal ganglia of Wistar rats; test: Ca2+ response of cultured trigeminal neurons to test compounds (Fura-2 fluorescence); type: cell-based; details: 100 μM final test concentration; cellular Ca2+ levels, cultured rat trigeminal neurons; relative to compound 1 (icilin)
Experimental: The efficacy of different compounds according to the invention was tested in vitro, by exposing cultured neurons to the compounds and monitoring the cellular Ca^2+ levels.
The compounds were dissolved in DMSO by ultrasonication to a 0.1 M solution. 5 μl of this stock was added to 5 mg of cyclodextrin and 5 ml of 140 Na-tyrode, to achieve a 100 μM final test concentration.
Neurons from trigeminal ganglia of Wistar rats were prepared as described in U.S. Pat. No. 5,811,256. After 24 hours of cultivation, the responsiveness of the neurons to different compounds was measured according to the general procedure described by McKemy et al (Nature, Vol. 416, 2002, 52–58). The test protocol described by McKemy was modified slightly, by using the fluorescent Ca^2+ indicator Fura-2. Detection of the cellular fluorescence signals was performed by videomicroscopical analysis. The neurons were given a cold stimulus by a thermocoupling device and were subsequently tested for responsiveness to the test compounds by superfusion with solutions containing the test compounds while continuously monitoring the cellular Ca^2+ levels.
The results were recorded for compounds 1 to 3 and menthol, and are expressed below, as a percentage compared to the activity for compound 1 (icilin).

[3] = system: mucous membranes (nostrils, lips and eyelids) of the researchers; details: in contact with mucous membranes (nostrils, lips and eyelids), also when ingested; cited from earlier work

| Compound | cooling effect [1] | Activity (% relative to Compound 1) [2] | sensations of coldness [3] |
| --- | --- | --- | --- |
| COc1cccc(C2=CCN(c3ccccc3O)C(=O)N2)c1 [1-(2′-hydroxyphenyl)-4-(3″-methoxyphenyl)-1,2,3,6-tetrahydropyrimidine-2-one] | good cooling effects |  |  |
| O=C1NC(c2cccc([N+](=O)[O-])c2)=CCN1c1ccccc1 [1-phenyl-4-(3″-nitrophenyl)-1,2,3,6-tetrahydropyrimidine-2-one] | good cooling effects |  |  |
| CC1CCC(C(C)C)C(O)C1 (centres unmarked) [Menthol, 2-isopropyl-5-methyl-cyclohexanol] |  | 42% |  |
| O=C1NC(c2ccccc2[N+](=O)[O-])=CCN1c1ccccc1O [Compound 1, 1-[2-hydroxyphenyl]-4-[2-nitrophenyl]-1,2,3,6-tetrahydropyrimidine-2-one] |  | 100% | produced sensations of coldness |
| O=C1NC(c2cccc([N+](=O)[O-])c2)=CCN1c1ccccc1C(F)(F)F [1-(2′-trifluoromethylphenyl)-4-(3″-nitrophenyl)-1,2,3,6-tetrahydropyrimidine-2-one] | good cooling effects |  |  |
| O=C1NC(c2ccccc2)=CCN1c1ccccc1O [1-(2′-hydroxyphenyl)-4-phenyl-1,2,3,6-tetrahydropyrimidine-2-one] | good cooling effects |  |  |
| O=C1NC(c2cccc(Cl)c2)=CCN1c1ccccc1O [Compound 3, 1-(2′-hydroxyphenyl)-4-(3″-chlorophenyl)-1,2,3,6-tetrahydro-pyrimidine-2-one] |  | 35% |  |
